Source: ChEMBL document CHEMBL1201862, “PubChem BioAssay data set” (2004)
Activity calls are given as the source filed them.

Assays:
[1] = molecular target: Disintegrin and metalloproteinase domain-containing protein 17 (Homo sapiens, UniProt P78536); assay: exosite inhibitors of ADAM17, dose response, biochemical (AID 743260)
[2] = ADAM10 protease inhibitors, dose response, selectivity assay for ADAM17 exosite inhibitor project, biochemical, FRET peptide substrate, recombinant human ADAM10 (AID 743259);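 further: ADAM10 enzyme cleaving a FRET peptide substrate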
[3] = Shn3 3'UTR reporter inhibitors, dose response, cell-based, Clone20 osteoblasts, firefly luciferase, cherry-picked (AID 624132); format: functional;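 further: firefly luciferase luminescence from reporter carrying the Shn3 3'UTR in osteoblasts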
[4] = control 3'UTR Renilla luciferase suppression, dose response, counter-screen for Shn3 inhibitor project, cell-based, Clone20-Shn3RL, cherry-picked (AID 624133); format: functional
[5] = reduction of Shn3 3'UTR firefly luciferase signal, dose response, Schnurri-3 inhibitor project, cell-based, Clone20 osteoblasts, cherry-pick, set 2 (AID 720490); format: functional;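 further: actives lower the luminescence signal as inhibitors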
[6] = A Cell-Based Confirmatory Screen for Compounds that Inhibit VEEV, TC-83 (8).; format: functional
[7] = A Cell-Based Confirmatory Screen for Compounds that Inhibit VEEV, TC-83 (6).; format: functional
[8] = cytotoxicity in HeLa cells, dose response, cytotoxicity control, cell-based, plate reader, dry powder (AID 651946); format: functional
[9] = HepG2 cell cytotoxicity, dose response, cytotoxicity control, ATP luminescence, cherry-pick, activator set 2 (AID 1053143); format: functional, cell-based
Nonstructural protein 1 = Nonstructural protein 1 (Influenza A virus, UniProt Q194T2); format: functional, Influenza A virus (A/California/07/2009(H1N1))
Nonstructural protein 1, sequence (Q194T2 whole entry): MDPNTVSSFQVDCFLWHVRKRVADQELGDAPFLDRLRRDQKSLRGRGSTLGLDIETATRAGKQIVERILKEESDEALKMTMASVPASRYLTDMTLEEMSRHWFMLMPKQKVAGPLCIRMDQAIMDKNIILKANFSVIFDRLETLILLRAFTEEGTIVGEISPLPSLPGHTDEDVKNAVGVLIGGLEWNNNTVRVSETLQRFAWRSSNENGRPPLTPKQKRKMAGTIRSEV

[10] = molecular target: T1, Apoptotic protease-activating factor 1 (Homo sapiens, UniProt O14727); format: functional
T1 sequence (O14727 whole entry): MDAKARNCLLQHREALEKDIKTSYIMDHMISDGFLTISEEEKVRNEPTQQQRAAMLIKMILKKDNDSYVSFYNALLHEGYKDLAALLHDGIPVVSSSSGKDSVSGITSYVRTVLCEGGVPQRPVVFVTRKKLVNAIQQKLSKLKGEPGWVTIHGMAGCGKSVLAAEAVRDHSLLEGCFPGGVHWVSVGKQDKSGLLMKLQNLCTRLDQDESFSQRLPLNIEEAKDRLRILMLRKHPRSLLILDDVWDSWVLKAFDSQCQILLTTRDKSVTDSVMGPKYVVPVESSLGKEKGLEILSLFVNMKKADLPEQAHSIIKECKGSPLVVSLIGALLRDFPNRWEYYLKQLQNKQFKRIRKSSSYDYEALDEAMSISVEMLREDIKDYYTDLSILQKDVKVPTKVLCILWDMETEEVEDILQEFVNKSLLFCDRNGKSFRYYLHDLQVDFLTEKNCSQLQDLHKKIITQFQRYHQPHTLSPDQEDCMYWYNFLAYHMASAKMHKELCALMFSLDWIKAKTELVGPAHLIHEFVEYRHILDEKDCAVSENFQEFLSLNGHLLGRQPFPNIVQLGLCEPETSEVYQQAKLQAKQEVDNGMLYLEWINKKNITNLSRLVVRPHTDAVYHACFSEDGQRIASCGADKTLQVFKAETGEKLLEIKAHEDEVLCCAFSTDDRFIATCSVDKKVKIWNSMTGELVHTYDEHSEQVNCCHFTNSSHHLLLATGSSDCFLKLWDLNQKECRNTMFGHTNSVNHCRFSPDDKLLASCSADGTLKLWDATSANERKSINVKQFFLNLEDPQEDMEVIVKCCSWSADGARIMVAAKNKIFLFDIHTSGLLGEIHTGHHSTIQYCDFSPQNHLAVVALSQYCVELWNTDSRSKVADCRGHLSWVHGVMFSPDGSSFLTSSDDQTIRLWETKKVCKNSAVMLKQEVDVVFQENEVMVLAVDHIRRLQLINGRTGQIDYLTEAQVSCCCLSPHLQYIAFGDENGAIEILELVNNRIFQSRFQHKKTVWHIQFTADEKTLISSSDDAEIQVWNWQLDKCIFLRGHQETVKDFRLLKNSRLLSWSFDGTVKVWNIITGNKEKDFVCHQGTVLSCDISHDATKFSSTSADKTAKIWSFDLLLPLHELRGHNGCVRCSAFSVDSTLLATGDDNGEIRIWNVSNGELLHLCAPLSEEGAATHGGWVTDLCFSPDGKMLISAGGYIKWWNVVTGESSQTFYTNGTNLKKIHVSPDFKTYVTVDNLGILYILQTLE

[11] = molecular target: T2, DNA repair protein RAD52 homolog (Homo sapiens, UniProt P43351); format: functional, biochemical
T2 sequence (P43351 whole entry): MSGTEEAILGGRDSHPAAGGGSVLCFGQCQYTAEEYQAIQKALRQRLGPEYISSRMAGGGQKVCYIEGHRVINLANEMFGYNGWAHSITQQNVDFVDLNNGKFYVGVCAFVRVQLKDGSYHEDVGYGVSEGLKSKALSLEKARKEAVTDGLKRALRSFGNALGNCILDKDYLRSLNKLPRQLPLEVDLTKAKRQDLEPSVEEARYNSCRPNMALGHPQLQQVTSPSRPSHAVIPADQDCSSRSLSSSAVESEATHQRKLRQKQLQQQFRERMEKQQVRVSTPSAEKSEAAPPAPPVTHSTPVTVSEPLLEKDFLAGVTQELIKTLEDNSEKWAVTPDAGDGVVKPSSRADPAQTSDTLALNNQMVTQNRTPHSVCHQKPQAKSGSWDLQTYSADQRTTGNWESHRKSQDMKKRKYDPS

A549 = assay: A549 cell toxicity, dose response, cytotoxicity control, plate reader, cherry-pick samples (AID 687028); format: functional, cell-based; conditions: Homo sapiens
Caspase-6 = molecular target: T3, Caspase-6 (Homo sapiens, UniProt P55212); assay: human caspase-6 inhibitors, dose response, biochemical, VEID-R110 fluorescence, cherry-pick (AID 720632)
T3 sequence (P55212 whole entry): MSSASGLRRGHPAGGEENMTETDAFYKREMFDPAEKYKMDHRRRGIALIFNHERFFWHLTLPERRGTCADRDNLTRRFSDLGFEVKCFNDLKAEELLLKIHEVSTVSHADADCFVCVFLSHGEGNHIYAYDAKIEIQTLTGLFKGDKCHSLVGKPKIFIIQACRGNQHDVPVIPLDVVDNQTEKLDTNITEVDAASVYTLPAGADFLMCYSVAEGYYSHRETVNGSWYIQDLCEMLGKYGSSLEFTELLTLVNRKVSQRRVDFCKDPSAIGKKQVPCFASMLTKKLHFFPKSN

Caspase-9 = Caspase-9 (Homo sapiens, UniProt P55211); assay: caspase-9 enzyme inhibition, dose response, selectivity assay for caspase-6 inhibitor project, biochemical, fluorescence, plate reader, cherry-picked samples (AID 743293)
Caspase-9, sequence (P55211 1-315 limits assumed): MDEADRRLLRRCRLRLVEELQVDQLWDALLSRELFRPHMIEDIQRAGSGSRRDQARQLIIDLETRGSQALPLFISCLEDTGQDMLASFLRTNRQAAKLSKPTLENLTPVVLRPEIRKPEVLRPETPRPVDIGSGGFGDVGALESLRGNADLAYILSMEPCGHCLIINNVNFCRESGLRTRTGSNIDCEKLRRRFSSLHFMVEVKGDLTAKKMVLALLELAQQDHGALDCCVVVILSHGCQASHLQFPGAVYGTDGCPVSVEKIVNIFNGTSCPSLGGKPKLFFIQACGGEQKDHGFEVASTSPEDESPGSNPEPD
Caspase-9, sequence (P55211 331-416 limits assumed): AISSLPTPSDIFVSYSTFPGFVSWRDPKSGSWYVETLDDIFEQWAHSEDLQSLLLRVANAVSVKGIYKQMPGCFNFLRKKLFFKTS

[12] = A549 cell cytotoxicity, dose response, cytotoxicity control, plate reader, cherry-pick, antagonist series (AID 743412); format: functional, cell-based
[13] = HepG2 cell cytotoxicity, dose response, cytotoxicity control, plate reader, cherry-pick, antagonist series (AID 743416); format: functional, cell-based
[14] = LGR2 antagonists, dose response, cell-based, HEK293, CRE-luciferase reporter, cherry pick, set 2 (AID 743343); format: functional;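 further: transfected cells were stimulated with diluted bursicon conditioned medium after compound addition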
Caspase-7 = Caspase-7 (Homo sapiens, UniProt P55210); assay: human caspase-7 inhibitors, dose response, selectivity assay for caspase-6 inhibitor project, biochemical, DEVD-R110 fluorescence, cherry-pick (AID 743295)
Caspase-7, sequence (P55210 24-198 limits assumed): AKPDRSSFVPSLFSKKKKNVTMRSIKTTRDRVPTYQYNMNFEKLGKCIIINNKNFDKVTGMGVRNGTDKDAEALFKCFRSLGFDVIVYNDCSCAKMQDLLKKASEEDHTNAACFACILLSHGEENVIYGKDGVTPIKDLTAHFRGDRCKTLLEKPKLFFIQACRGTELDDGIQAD
Caspase-7, sequence (P55210 207-303 limits assumed): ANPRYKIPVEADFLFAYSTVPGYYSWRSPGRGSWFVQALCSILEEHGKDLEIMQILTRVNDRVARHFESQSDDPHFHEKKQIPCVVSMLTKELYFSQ

[15] = MC4R antagonists, dose response, counter-screen for LGR2 antagonist project, cell-based, plate reader, cherry pick (AID 743444); format: functional;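 further: transfected HEK 293 cells stimulated with alpha-MSH peptide; potency of inhibitors of the alpha-MSH evoked signal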
Caspase-8 = Caspase-8 (Homo sapiens, UniProt Q14790); assay: caspase-8 inhibition counter-screen, dose response, selectivity assay for caspase-6 inhibitor project, biochemical, Z-IETD-R110 fluorescence, cherry-picked samples (AID 743294)
Caspase-8, sequence (Q14790 217-374 limits assumed): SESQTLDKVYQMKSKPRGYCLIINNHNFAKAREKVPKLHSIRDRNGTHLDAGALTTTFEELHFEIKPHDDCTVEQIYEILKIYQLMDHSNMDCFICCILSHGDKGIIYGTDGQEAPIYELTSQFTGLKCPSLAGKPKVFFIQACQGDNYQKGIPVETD
Caspase-8, sequence (Q14790 385-479 limits assumed): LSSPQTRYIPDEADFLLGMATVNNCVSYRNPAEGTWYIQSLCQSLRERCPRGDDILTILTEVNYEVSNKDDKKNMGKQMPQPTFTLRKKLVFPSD

Disintegrin and metalloproteinase domain-containing protein 17, sequence (P78536 whole entry, the tested form may be a part): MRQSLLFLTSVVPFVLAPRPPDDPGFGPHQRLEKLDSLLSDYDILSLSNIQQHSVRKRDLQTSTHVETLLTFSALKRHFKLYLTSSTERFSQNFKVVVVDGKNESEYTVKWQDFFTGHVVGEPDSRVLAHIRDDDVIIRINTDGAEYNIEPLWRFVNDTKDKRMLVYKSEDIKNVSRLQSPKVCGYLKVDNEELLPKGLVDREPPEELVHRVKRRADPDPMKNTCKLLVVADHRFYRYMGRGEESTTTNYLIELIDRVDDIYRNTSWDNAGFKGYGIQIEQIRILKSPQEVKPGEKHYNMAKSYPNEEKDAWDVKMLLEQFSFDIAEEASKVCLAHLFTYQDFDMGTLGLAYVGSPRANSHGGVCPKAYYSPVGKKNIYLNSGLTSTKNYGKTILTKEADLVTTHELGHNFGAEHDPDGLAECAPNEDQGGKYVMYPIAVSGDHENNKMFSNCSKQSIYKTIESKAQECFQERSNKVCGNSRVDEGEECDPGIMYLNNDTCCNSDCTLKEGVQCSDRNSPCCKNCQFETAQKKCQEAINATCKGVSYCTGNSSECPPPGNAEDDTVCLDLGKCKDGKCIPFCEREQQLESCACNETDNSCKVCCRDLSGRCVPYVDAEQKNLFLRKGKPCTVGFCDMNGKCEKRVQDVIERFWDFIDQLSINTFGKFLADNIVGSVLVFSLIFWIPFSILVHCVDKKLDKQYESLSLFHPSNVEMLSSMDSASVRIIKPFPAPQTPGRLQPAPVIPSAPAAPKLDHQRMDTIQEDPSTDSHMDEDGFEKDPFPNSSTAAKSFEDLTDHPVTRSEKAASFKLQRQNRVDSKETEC

## COc1ccccc1CNS(=O)(=O)c1cc(-c2cc(C)no2)ccc1C(C)C
[1]
  IC50: > 69.5 µM (inactive)
[2]
  IC50: > 69.5 µM (inactive)

## Cc1onc(-c2ccccc2Cl)c1C(=O)N(C)C1CCCCC1
[3]
  AC50: 2.74 µM (active)
[4]
  AC50: 11.2 µM (active)
[5]
  AC50: 3.59 µM (active)

## COc1cccc(-n2c(CN3CCNCC3)nc3ccc([N+](=O)[O-])cc3c2=O)c1
[6]
  IC50: 10.4 µM (active)
[7]
  IC50: 10.4 µM (active)

## c1ccc(-c2nnc(SC(c3ccccc3)c3ccccc3)o2)cc1
[8]
  AC50: > 52 µM (inactive)

## O=C(/C=C/c1ccco1)Nc1cccnc1Cl
[9]
  AC50: > 52 µM (inactive)

## CN(C)CCCNc1cc(O)c2ncccc2c1
Nonstructural protein 1
  IC50: 4.57 µM (active)
[10]
  IC50: 15.8 µM (active)
[11]
  AC50: 1.15 µM (active)
A549
  AC50: 20.2 µM (active)
Caspase-6
  AC50: 3.64 µM (active)
Caspase-9
  AC50: > 70 µM (inactive)
[12]
  AC50: 8.67 µM (active)
[13]
  AC50: 7.93 µM (active)
[14]
  AC50: 32 µM (active)
Caspase-7
  AC50: 7.56 µM (active)
[15]
  AC50: 25.3 µM (active)
Caspase-8
  AC50: 42 µM (active)
